Experimental data: patent publication US20200003756A1, “METHOD FOR OBSERVING SEBACEOUS GLAND” (MANDOM CORPORATION, priority 2017, published 2020)

Key:
[1] = system: sebaceous-gland-structure A; test: Observation of inside of sebaceous-gland-structure, lipid droplets of sebum in outermost layer / degree of progress of sebum production (Example 2); format: cell-based; details: test sample D, linoleic acid 1×10^−4 M plus test substance 1 μM, 24 hours (Experiment number 9); FIGS. 9 and 10
Procedure: Linoleic acid and linoleic acid receptor antagonist (manufactured by Abeam plc, trade name: GSK-3787) as test substances were added to the mixed medium obtained in Preparation Example 1 so that the concentration of linoleic acid was 1×10^−4 M and so that the concentration of the test substance was 1 μM, to obtain a test sample D.
One milliliter of the test sample A was added to each well of a 24-well plate. Next, the sebaceous-gland-structure A obtained in Preparation Example 6 was cultured in a suspended state in the test sample A in each well of the 24-well plate in the presence of 5% by volume carbon dioxide at 37° C. for 24 hours, to contact the sebaceous-gland-structure A with the test sample A (Experiment number 7). […]
Furthermore, the state of each cell of 40 cells in the outermost layer shown in each figure was evaluated by using the results shown in FIGS. 7 to 9 on the basis of the evaluation criterion described below. […]
Next, the degree of progress of sebum production in the sebaceous gland cell contained in the sebaceous-gland-structure A was evaluated by calculating the mean value of the points in the 40 cells in the outermost layer in FIGS. 7 to 9. […]

[2] = system: sebaceous-gland-structure A; test: Degree of sebum production from three-dimensional image analysis of outermost layer (Example 4); format: cell-based; details: 24 hours
Procedure: Linoleic acid and phytic acid as test substances were added to the mixed medium obtained in Preparation Example 1 (test sample A) so that the concentration of linoleic acid was 1×10^−4M and so that the concentration of the test sample was 100 μM, to obtain a test sample E. One milliliter of the test sample A was added to each well of a 24-well plate. Text, the sebaceous-gland-structure A obtained in Preparation Example 6 was cultured in a suspended state in the test sample A contained in each well of the 24-well plate in the presence of 5% by volume carbon dioxide at 37° C. for 24 hours, to contact the sebaceous-gland-structure A with the test sample A (Experiment number 10). In addition, the sebaceous-gland-structure A was contacted with the test sample B (Experiment number 11) or the test sample E (Experiment number 12) in the same manner as in Experiment, number 10 except that in Experiment number 10, the test sample B obtained in Example 1(1) (Experiment number 11) or the test sample E obtained in Example 4(1) (Experiment number 12) was used in place of the test sample A. Each of observation samples of Experiment numbers 10 to 12 was obtained in the same manner as in Preparation Example 7 except that in Preparation Example 7, the cultured sebaceous-gland-structure A obtained in Example 4(2) (Experiment numbers 10 to 12) was used in place of the cultured sebaceous-gland-structure A obtained in Preparation Example 6. The appearance of the sebaceous-gland-structure A contained in the observation sample of each of Experiment numbers 10 to 12 obtained in Example 4(3) was observed under a confocal microscope by using image analysis software (manufactured b Bitplane AG, trade name: Imaris), thereby giving three-dimensional image of the sebaceous-gland-structure A. Next, information of the outermost layer of the sebaceous-gland-structure A was extracted from the data of the resulting three-dimensional image by using image analysis software (manufactured by Bitplane AG, trade name: Imaris). Thereafter, the whole volume of the cells present in the outermost layer was calculated from the extracted information, and thereafter the sebum droplets contained in the outermost layer were counted. Using the whole volume of the cells present in the outermost layer and the number of lipid droplets of the sebum the degree of sebum production was calculated according to Formula (I): [Degree of Sebum production]=[Number of lipid droplets of sebum]/[Whole volume of cells present in outermost layer] (I)

Row | SMILES | lipid droplets of sebum in the outermost layer of the sebaceous-gland-structure A [1] | sebum production-regulating action ([2]; phytic acid 100 μM in presence of linoleic acid 1×10^−4 M, conclusion from FIG. 11) | degree of sebum production (number of lipid droplets of sebum / whole volume of cells present in outermost layer) ([2]; test sample E, linoleic acid 1×10^−4 M plus phytic acid 100 μM, compared with test sample containing linoleic acid, FIG. 11)
1 | O=C(NCCS(=O)(=O)c1ccc(C(F)(F)F)cn1)c1ccc(Cl)cc1 [linoleic acid receptor antagonist, GSK-3787] | no lipid droplet of sebum was found | – | –
2 | O=P(O)(O)O[C@H]1[C@H](OP(=O)(O)O)[C@@H](OP(=O)(O)O)[C@H](OP(=O)(O)O)[C@@H](OP(=O)(O)O)[C@H]1OP(=O)(O)O [phytic acid] | – | sebum production-inhibiting action | lower
